Experimental data from US5773438A, “Synthetic matrix metalloprotease inhibitors and use thereof” (Glycomed Incorporated, priority 1994, dated 1998).
“Also recorded” adds a separate entry of the source.

Columns and labels:
B16-F10 murine melanoma = assay: experimental metastasis assay in C57 mice; format: in vivo, Female C57 BL/6 mice; settings: days 35-37; 150 mg/kg/d ip; p<0.05
Procedure: Female C57 BL/6 mice, 4-6 weeks old (15-20 grams), from Simonsen Laboratories (Gilroy, Calif.) were used for this assay.
The B16-F10 murine melanoma was obtained from the American Type Tissue Culture Collection, and routinely propagated in DMEM (Dulbecco's modified eagles medium)+10% fetal calf serum in plastic tissue culture flasks in a humidified 5% CO2 incubator at 37° C. B16-F10 tumor cells were harvested with trypsin-EDTA (ethylenediamine-tetraacetic acid), washed with PBS (phosphate buffered saline, 2x), resuspended at a concentration of 5×10^5 cells/ml, and held on ice prior to injection. Animals were challenged with 5×10^4 cells in a volume of 0.1 ml intravenously (10 animals/treatment group). Animals were randomly distributed prior to assignment to treatment groups.
Survival times were recorded for animals in the various treatment groups, and results were evaluated using Chi-Squared statistical analysis.

common carotid artery = assay: anti-restenotic assay, balloon catheter injury of common carotid artery; format: in vivo, Male Sprague-Dawley rats
Procedure: Male Sprague-Dawley rats (3-3.5 months old) were subject to balloon catheter injury of the common carotid artery (Clowes et al. Lab. Invest. (1983) 49:208-215). […] Rats were sacrificed at 4 days after injury. They were injected with 25 mg/kg BrdU subcutaneously at 17, 9 and 1 hours before sacrifice to label replicating vascular smooth muscle cells. A catheter was inserted into the aorta, and the carotids were fixed by perfusion with 4% paraformaldehyde at physiologic pressure. After carefully dissecting out the common carotid, the vessels were embedded in paraffin, cross-sectioned and stained with anti-BrdU antibody and hematoxylin, and an index of medical smooth muscle cell replication was obtained by expressing the % labelled SMCs ([…] et al., J. Clin. Invest. (1992) 90:2044-2049). After fixation, the common carotids were pinned out with the intimal surface facing upwards, and cells present on the intimal surface were stained with an antibody to histone proteins. […] The surface cells were counted and the number of cells per unit area was determined. […] The animals were injected with BrdU before sacrifice to label replicating cells in the media and intima. By 10 days after injury, the normal vessel forms a thickened neointima; smooth muscle migration in to the intima and subsequent proliferation contribute to this thickening. Cross-sections of the vessel were cut and stained with anti-BrdU and hematoxylin. Intimal cross-sectional areas were measured using a computer digitizing system. […] All data are presented as mean+SEM, and the data were analyzed by student's test.

[1] = test system: protease activity in open and chronic wound fluids; assay: Azocoll assay of protease activity in open and chronic wound fluids; format: biochemical, human
Procedure: Fluids were collected from 3 types of human wounds termed closed spontaneously healing wounds, open slowly healing wounds, and open chronic wounds. In the first category were fluids collected from the chest wall of women following mastectomy surgery. Fluids from non-infected wounds that were left open for valid surgical reasons were considered open slowly healing wounds. An occlusive dressing was placed over the wound bed, and fluids were collected after 2-6 hours of occlusion. Finally, fluids were also collected from chronic open wounds by covering the wounds with occlusive dressings. Wounds were considered to be chronic if they were not clinically infected and had been open and not healing for more than 4 weeks.
The various wound fluids were assayed for matrix metalloproteinase activity using the Azocoll assay essentially as described by Chavira, et al., Analytic Biochemistry (1984), 136:446.
The fluids were centrifuged, and the supernatants filtered using a 0.45μ sterile Gelman filter. The filtrates were stored frozen at -80° C. until tested for protease activity.
The effects of four inhibitors on the protease activity present in wound fluids were determined. The inhibitors were: compounds
These inhibitors were compared to certain other inhibitors and these were UL001 [HSCH2 CH(CH2 CH(CH3)2)CO--Phe--Ala--NH2 ] obtained from Peptides International and MP506, obtained from Elastin Products. EDTA (ethylenediamine tetraacetic acid) and PMSF (phenylmethylsulfonyl fluoride) were also studied.
Briefly, 900 μl of the Azocoll substrate suspension in buffer ([…] in 50 mM TRIS, pH 7.8, 1 mM CaCl2) was added to 1.5 ml microcentrifuge tubes then 50 μl of inhibitor (or buffer) and 50 μl of chronic wound fluid (or collagenase standard) were added to the reaction tube. The reaction tubes were placed at 37° C. in a shaker that inverted the tubes 30 times per minute. After 24 hours of incubation, the reaction tubes were centrifuges at 10,000 X g and the absorbance of the supernatant solution was measured at 520 nm with a Milton-Roy spectrophotometer. Proteolysis of Azocoll substrate generates soluble colored fragments from the insoluble Azocoll substrate. Wound fluid samples were incubated alone or with the inhibitors. Controls included incubation of the Azocoll substrate with the assay buffer to measure spontaneous degradation of the substrate. A standard curve for digestion of the Azocoll substrate was generated by incubation of the Azocoll with crude bacterial collagenase. Protease levels were expressed as net μg of collagenase equivalent per ml of chronic wound fluid. In the figures, certain of the wound fluids are referred to by an individual name.

[2] = test system: PdiBu-Induced Epidermal Hyperplasia; assay: PdiBu-induced epidermal hyperplasia mouse model (psoriasis); format: in vivo, hairless mice
Procedure: The phorbol ester, PdiBu (20 nmol in 20 μl if acetone) was applied to both ears of hairless mice (h/h) (approximately 1 cm^2 each). The test compounds (in total volume of 20 μl) were then applied to the right ear immediately (15 to 30 min) following PdiBu. The left ear of each animal received an equivalent amount (20 μl) of vehicle. Test compounds (and vehicle) were reapplied at 6 and 18 hours following PdiBu. Treatment times were staggered to allow exact time intervals to be obtained. At 30 hours after PdiBu, animals were anesthetized, and ear thickness values were obtained using a microcaliper. The weights of punch biopsies (6mm) were then obtained. Histology was performed on selected samples taken at 30 hours.
Left ear in each animal served as vehicle-treated controls (PdiBu+ETOH). Thus, the controls for this series include: 1) Untreated controls; 2) PdiBu plus vehicle alone (included for each mouse tested); 3) PdiBu plus AHA; 4) PdiBu plus Lidex® as a positive control.

CNC(=O)[C@H](Cc1c[nH]c2ccccc12)NC(=O)[C@@H](CC(=O)NO)CC(C)C [Compound 5A, N-[D,L-2-isobutyl-3-(N'-hydroxycarbonylamido)-propanoyl]-tryptophan methylamide]
survival of mice versus vehicle control (B16-F10 murine melanoma): significant increase in the survival | number of cells per unit area (intimal surface) versus CMC controls (common carotid artery; 4 day, 100 mg/kg i.p. daily): significant decrease | cell migration into the intima (common carotid artery; 4 days after balloon injury): very large decrease | intimal cell replication rate versus controls (common carotid artery; 10 day): significantly higher | lesion thickness (common carotid artery; 10 day): dramatically reduced | intimal cross-sectional area versus CMC controls (common carotid artery; 10 day, daily administration): significant decrease | effect on proteolytic activity of open and chronic wound fluids ([1]; FIG. 5): very effective inhibitors | inhibition of Azocoll-degrading proteases in wound fluids ([1]; FIG. 6): very effectively; also recorded: very effective inhibitors | reduction of proteolytic activity in open or chronic wound fluids ([1]; fluids with high levels of Azocoll-degrading protease activity): 95% | skin biopsy weight ([2]; PdiBu + 5A, 0.51 μmol/ear at 0.25 and 24 hours, 6 mm punch): 13.4 ± 1.5 mg | skin biopsy weight, % of Control ([2]; PdiBu + 5A, 0.51 μmol/ear at 0.25 and 24 hours, of untreated control): 146% | ear thickness ([2]; PdiBu + 5A, topical 0.51 μmol/ear): 18.6 ± 1.6 inch × 10^-3 | ear thickness, % of Control ([2]; PdiBu + 5A, topical 0.51 μmol/ear, of untreated control): 140% | PdiBu-induced epidermal hyperplasia ([2]; histology): inhibited; also recorded: completely prevents; also recorded: decreased inflammation and epidermal hyperplasia | PdiBu-induced extravasation of RBC's ([2]; histology): inhibited | PdiBu-induced migration of inflammatory cells into dermis and epidermis ([2]; histology): inhibited | epidermal morphology ([2]; histology): more normal appearing epidermal morphology | anti-inflammatory activity ([2]; in vivo model for psoriasis): potent anti-inflammatory activity; also recorded: nearly comparable to that observed with Lidex® | effect on PdiBu-induced ear thickness ([2]; topical): significantly inhibited | effect on PdiBu-induced increase in punch biopsy weight ([2]; topical): significantly inhibited
